Measurements: the CheMixHub viscosity set
± gives the uncertainty stated by the source.

Test: xn = mol fraction of the nth substance listed

O=[N+]([O-])c1ccccc1 + CS(C)=O
viscosity [mPa·s], 101 kPa
Conditions | x2 = 0.1 | x2 = 0.2 | x2 = 0.3 | x2 = 0.4 | x2 = 0.5 | x2 = 0.6 | x2 = 0.7 | x2 = 0.8 | x2 = 0.9
298.15 K | 1.851 ± 0.018 | 1.877 ± 0.018 | 1.903 ± 0.018 | 1.927 ± 0.018 | 1.946 ± 0.018 | 1.962 ± 0.019 | 1.975 ± 0.019 | 1.985 ± 0.019 | 1.993 ± 0.019
308.15 K | 1.569 ± 0.015 | 1.586 ± 0.015 | 1.605 ± 0.016 | 1.623 ± 0.016 | 1.639 ± 0.016 | 1.653 ± 0.016 | 1.662 ± 0.016 | 1.665 ± 0.016 | 1.664 ± 0.016
318.15 K | 1.333 ± 0.013 | 1.349 ± 0.013 | 1.353 ± 0.013 | 1.377 ± 0.014 | 1.388 ± 0.014 | 1.396 ± 0.014 | 1.402 ± 0.014 | 1.403 ± 0.014 | 1.4 ± 0.014

ClC(Cl)=C(Cl)Cl + Cc1ccc(C)cc1
303.15 K, 101 kPa
Conditions | viscosity [mPa·s]
x1 = 0.106 | 0.586 ± 0.006
x1 = 0.1121 | 0.588 ± 0.006
x1 = 0.212 | 0.607 ± 0.006
x1 = 0.6339 | 0.704 ± 0.007
x1 = 0.6982 | 0.719 ± 0.007
x1 = 0.7773 | 0.738 ± 0.007
x1 = 0.8517 | 0.757 ± 0.007

CCCCCCCC + Cc1ccccc1
303.15 K, 101.33 kPa
Conditions | viscosity [mPa·s]
x2 = 0.2634 | 0.47 ± 0.095
x2 = 0.4184 | 0.464 ± 0.094
x2 = 0.8282 | 0.485 ± 0.098
x2 = 0.888 | 0.498 ± 0.1
x2 = 0.9417 | 0.508 ± 0.1

CCCCCCCCCCCCCC + Cc1ccccc1
viscosity [mPa·s], 101 kPa
Conditions | x1 = 0.1106 | x1 = 0.1996 | x1 = 0.2947 | x1 = 0.3965 | x1 = 0.5013 | x1 = 0.5988 | x1 = 0.7002 | x1 = 0.7982 | x1 = 0.8995
298.15 K | 0.697 ± 0.047 | 0.803 ± 0.053 | 0.909 ± 0.059 | 1.038 ± 0.066 | 1.168 ± 0.073 | 1.318 ± 0.082 | 1.468 ± 0.09 | 1.664 ± 0.1 | 1.86 ± 0.11
303.15 K | 0.654 ± 0.045 | 0.748 ± 0.05 | 0.842 ± 0.055 | 0.962 ± 0.062 | 1.081 ± 0.068 | 1.211 ± 0.076 | 1.341 ± 0.083 | 1.513 ± 0.092 | 1.685 ± 0.1
308.15 K | 0.613 ± 0.042 | 0.699 ± 0.047 | 0.786 ± 0.052 | 0.894 ± 0.058 | 1.002 ± 0.064 | 1.115 ± 0.07 | 1.228 ± 0.077 | 1.384 ± 0.085 | 1.54 ± 0.094
